Measured values taken from patent publication US12686727B2, “Antibodies for binding plasmin” (MONASH UNIVERSITY, priority 2019, dated 2026).

Test system: whole blood clots
Assay: Whole blood clot lysis induced by tPA
Assay type: cell-based, human
Details: for inhibition of clot lysis at high concentrations: up to 1,000 nM
Description: Whole blood clots were formed from human blood collected from healthy donors. Halo-shaped clots were generated by mixing whole blood with 15% of a mixture containing recombinant tissue factor supplemented with synthetic phospholipids Dade Innovin, Siemens Germany and 67 mM CaCl2 in HBS at 1:4 ratio. The plate was sealed and incubated at 37° C. for 60 min before use.
Clot lysis was induced by the addition of tPA to 7 nM and antibodies or Plm inhibitors at the following concentrations: 0-312.5 nM B10; 0-1000 nM α2AP; 0-1000 nM aprotinin; 0-7.5 mM TXA. Clot lysis leads to an […] of turbidity and was monitored at OD610 nm using a plate reader.
The time required to achieve 50% clot lysis was used for IC50 calculation. […] B10 was more than 180-fold more efficacious than TXA (not shown).

Molecule | inhibition of clot lysis at high concentrations | concentration of total inhibition of clot lysis (7 nM tPA, data not shown) [µM] | effect on clot lysis (concentration up to 100 μM)
Aprotinin [reference compound] | only partially inhibit clot lysis | – | –
NC[C@H]1CC[C@H](C(=O)O)CC1 [TXA, tranexamic acid, reference compound] | – | ≥ 300 | delayed clot lysis
alpha-2-antiplasmin (protein) NQEQVSPLTLLKLGNQEPGGQTALKSPPGVCSRDPTPEQTHRLARAMMAFTADLFSLVAQTSTCPNLILSPLSVALALSHLALGAQNHTLQRLQQVLHAGSGPCLPHLLSRLCQDLGPGAFRLAARMYLQKGFPIKEDFLEQSEQLFGAKPVSLTGKQEDDLANINQWVKEATEGKIQEFLSGLPEDTVLLLLNAIHFQGFWRNKFDPSLTQRDSFHLDEQFTVPVEMMQARTYPLRWFLLEQPEIQVAHFPFKNNMSFVVLVPTHFEWNVSQVLANLSWDTLHPPLVWERPTKVRLPKLYLKHQMDLVATLSQLGLQELFQAPDLRGISEQSLVVSGVQHQSTLELSEVGVEAAAATSIAMSRMSLSSFSVNRPFLFFIFEDTTGLPLFVGSVRNPNPSAPRELKEQQDSPGNKDFLQSLKGFPRGDKLFGPDLKLVPPMEEDYPQFGSPK | only partially inhibit clot lysis | – | –
